Measurements published in ChEMBL document CHEMBL5252536, “Discovery of VU0467485/AZ13713945: An M4 PAM Evaluated as a Preclinical Candidate for the Treatment of Schizophrenia” (ACS Med Chem Lett, 2017).
In brackets after ≈: the same amount, converted by molar mass. Activity calls are given as the source filed them. No cut-off for these calls is given here.

How the values were obtained:
[1] = Volume of distribution at steady state in Beagle dog at 3 mg/kg,po or 1 mg/kg,iv by LC-MS/MS analysis; assay type: ADME, organism-based, Canis lupus familiaris; conditions: in vivo
[2] = Elimination half life in Cynomolgous monkey at 0.2 mg/kg,iv by LC-MS/MS analysis; conditions: cynomolgus monkey, in vivo, read-out: beta t1/2 (converted)
Cytochrome P450 1A2 [3] = target: T1, Cytochrome P450 1A2 (Homo sapiens, UniProt P05177); experiment: Activation of CYP1A2 in human hepatocyte using phenacetin as substrate preincubated for 5 days followed by substrate addition and measured after 1 hr by LC-MS/MS analysis; assay type: ADME, cell-based
T1 sequence (P05177 whole entry): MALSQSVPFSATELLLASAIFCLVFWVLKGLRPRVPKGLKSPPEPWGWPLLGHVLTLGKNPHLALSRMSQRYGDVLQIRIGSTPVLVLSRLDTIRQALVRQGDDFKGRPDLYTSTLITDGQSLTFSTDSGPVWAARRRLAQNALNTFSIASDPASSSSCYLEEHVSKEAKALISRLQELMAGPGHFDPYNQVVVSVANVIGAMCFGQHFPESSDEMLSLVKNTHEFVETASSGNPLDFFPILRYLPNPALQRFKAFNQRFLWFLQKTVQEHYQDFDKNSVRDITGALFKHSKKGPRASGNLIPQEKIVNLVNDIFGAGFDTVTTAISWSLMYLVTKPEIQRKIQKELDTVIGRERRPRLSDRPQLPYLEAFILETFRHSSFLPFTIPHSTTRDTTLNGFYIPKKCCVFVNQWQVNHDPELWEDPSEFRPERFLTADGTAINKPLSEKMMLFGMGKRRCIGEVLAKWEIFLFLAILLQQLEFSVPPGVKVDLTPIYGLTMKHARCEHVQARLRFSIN

[4] = target: GABA-A receptor; anion channel; experiment: Inhibition of rat GABAA receptor; assay type: protein-complex assay
CYP1A2 = target: T2, CYP1A2 (Homo sapiens, UniProt P05177); experiment: Activation of CYP1A2 in human hepatocyte using phenacetin as substrate preincubated for 5 days followed by substrate addition and measured after 1 hr by LC-MS/MS analysis relative to control; assay type: ADME, cell-based; conditions: hepatocytes, probe phenacetin, time 121 hrs
T2 sequence (P05177 whole entry): T1 sequence (P05177 whole entry)

[5] = Terminal brain concentration in rat model of amphetamine-induced hyperlocomotion activity at 1 to 10 mg/kg, po measured after 1.5 hrs; assay type: ADME, organism-based; conditions: dose 1-10 mg/kg, read-out: Ct
Cytochrome P450 2C19 = Cytochrome P450 2C19 (Homo sapiens, UniProt P33261); experiment: […] of human CYP2C19 mediated drug metabolism incubated for 5 mins followed by NADPH addition measured after 1 hr by LC-UV/MS analysis relative to control; assay type: ADME; conditions: recombinant enzyme, 1.083 h, time 65 min
Cytochrome P450 1A2 [6] = target: T1, Cytochrome P450 1A2; experiment: Inhibition of CYP1A2 in human liver microsomes using phenacetin as substrate incubated for 15 mins in presence of NADPH by LC/MS/MS analysis; assay type: ADME, Microsome
[7] = Tmax in Beagle dog at 3 mg/kg,po by LC-MS/MS analysis; assay type: ADME, organism-based, Canis lupus familiaris; conditions: in vivo
[8] = Aqueous solubility of compound at pH 7.4; assay type: physicochemical; conditions: buffer
Cytochrome P450 1A2 [9] = target: T1, Cytochrome P450 1A2; experiment: […] of human CYP1A2 mediated drug metabolism incubated for 5 mins followed by NADPH addition measured after 1 hr by LC-UV/MS analysis relative to control; assay type: ADME; conditions: recombinant enzyme, 1.083 h, time 65 min
[10] = Positive allosteric modulator activity at dog M4 receptor expressed in CHO cells co-expressing Gqi5 in presence of EC20 concentration of acetylcholine by calcium mobilization assay; assay type: cell-based
[11] = Volume of distribution at steady state in Cynomolgous monkey at 0.2 mg/kg,iv by LC-MS/MS analysis; conditions: cynomolgus monkey, in vivo, read-out: Vdss
[12] = target: T3, Muscarinic acetylcholine receptor M4 (Homo sapiens) (UniProt P08173); experiment: Positive allosteric modulator activity at human M4 receptor expressed in CHO cells co-expressing Gqi5 in absence of EC20 concentration of acetylcholine by calcium mobilization assay; assay type: cell-based
T3 sequence (whole entry): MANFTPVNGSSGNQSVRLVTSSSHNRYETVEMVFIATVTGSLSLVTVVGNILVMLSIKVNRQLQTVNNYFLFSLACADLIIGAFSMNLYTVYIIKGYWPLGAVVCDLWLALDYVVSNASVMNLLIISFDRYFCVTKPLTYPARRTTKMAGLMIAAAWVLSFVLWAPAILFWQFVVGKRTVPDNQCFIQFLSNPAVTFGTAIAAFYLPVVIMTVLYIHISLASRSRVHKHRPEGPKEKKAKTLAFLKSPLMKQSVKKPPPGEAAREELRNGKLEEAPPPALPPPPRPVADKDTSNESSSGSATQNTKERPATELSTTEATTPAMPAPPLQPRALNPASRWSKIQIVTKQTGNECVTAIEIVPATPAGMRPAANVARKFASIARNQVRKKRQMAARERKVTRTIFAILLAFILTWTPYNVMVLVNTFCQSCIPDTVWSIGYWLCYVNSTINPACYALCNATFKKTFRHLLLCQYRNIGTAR

Cytochrome P450 2D6 = Cytochrome P450 2D6 (Homo sapiens, UniProt P10635); experiment: Inhibition of CYP2D6 in human liver microsomes using dextromethorphan as substrate incubated for 15 mins in presence of NADPH by LC/MS/MS analysis; assay type: ADME, Microsome
[13] = Volume of distribution at steady state in Sprague-Dawley rat at 3 mg/kg,po or 1 mg/kg,iv by LC-MS/MS analysis; assay type: ADME, organism-based; conditions: in vivo
Cytochrome P450 3A4 = Cytochrome P450 3A4 (Homo sapiens, UniProt P08684); experiment: Activation of CYP34A in human hepatocyte using midazolam as substrate preincubated for 5 days followed by substrate addition and measured after 1 hr by LC-MS/MS analysis; assay type: ADME, cell-based
Cytochrome P450 2B6 = target: T4, Cytochrome P450 2B6 (Homo sapiens, UniProt P20813); experiment: Activation of CYP2B6 in human hepatocyte using bupropion as substrate preincubated for 5 days followed by substrate addition and measured after 1 hr by LC-MS/MS analysis; assay type: ADME, cell-based
T4 sequence (P20813 whole entry): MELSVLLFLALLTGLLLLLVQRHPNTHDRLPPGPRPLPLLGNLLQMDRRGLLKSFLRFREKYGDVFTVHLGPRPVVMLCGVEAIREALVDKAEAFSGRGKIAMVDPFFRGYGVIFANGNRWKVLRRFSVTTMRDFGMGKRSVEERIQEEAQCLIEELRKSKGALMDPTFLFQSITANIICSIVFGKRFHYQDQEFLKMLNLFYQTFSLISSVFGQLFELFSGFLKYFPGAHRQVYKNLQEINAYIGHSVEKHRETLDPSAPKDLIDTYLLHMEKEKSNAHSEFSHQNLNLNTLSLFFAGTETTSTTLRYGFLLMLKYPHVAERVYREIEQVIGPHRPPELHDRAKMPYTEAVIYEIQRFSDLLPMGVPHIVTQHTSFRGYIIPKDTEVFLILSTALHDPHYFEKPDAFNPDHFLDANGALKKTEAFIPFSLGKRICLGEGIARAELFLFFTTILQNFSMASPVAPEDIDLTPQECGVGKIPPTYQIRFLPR

[14] = Tmax in Sprague-Dawley rat at 3 mg/kg,po by LC-MS/MS analysis; assay type: ADME, organism-based; conditions: in vivo

Chain of Cytochrome P450 2D6 (P10635 whole entry): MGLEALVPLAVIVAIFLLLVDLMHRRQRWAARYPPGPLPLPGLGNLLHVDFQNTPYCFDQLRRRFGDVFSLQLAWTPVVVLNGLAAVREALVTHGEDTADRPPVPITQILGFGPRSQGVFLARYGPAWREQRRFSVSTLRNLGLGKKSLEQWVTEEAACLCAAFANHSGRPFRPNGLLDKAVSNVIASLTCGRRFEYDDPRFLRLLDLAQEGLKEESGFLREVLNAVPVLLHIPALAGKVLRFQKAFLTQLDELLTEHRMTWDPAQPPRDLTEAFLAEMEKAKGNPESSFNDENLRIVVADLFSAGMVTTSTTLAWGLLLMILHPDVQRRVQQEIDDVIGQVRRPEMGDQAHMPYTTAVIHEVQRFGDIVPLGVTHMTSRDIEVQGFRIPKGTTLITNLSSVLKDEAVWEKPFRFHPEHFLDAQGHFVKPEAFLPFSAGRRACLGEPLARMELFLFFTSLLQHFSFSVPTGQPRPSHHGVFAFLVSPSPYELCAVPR
Chain of Cytochrome P450 3A4 (P08684 whole entry): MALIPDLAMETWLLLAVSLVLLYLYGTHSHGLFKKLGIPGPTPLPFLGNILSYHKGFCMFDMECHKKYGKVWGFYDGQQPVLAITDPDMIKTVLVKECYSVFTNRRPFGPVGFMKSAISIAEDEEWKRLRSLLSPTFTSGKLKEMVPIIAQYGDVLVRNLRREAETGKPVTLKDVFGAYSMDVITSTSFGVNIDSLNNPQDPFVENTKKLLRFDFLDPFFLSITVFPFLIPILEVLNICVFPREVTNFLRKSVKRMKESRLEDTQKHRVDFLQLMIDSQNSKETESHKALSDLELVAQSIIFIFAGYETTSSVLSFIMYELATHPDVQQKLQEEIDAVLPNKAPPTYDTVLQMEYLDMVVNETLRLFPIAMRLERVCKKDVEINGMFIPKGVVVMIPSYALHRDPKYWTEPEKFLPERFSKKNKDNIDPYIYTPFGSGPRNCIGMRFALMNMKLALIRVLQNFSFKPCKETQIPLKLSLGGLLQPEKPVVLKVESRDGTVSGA
Chain of Cytochrome P450 2C19 (P33261 whole entry): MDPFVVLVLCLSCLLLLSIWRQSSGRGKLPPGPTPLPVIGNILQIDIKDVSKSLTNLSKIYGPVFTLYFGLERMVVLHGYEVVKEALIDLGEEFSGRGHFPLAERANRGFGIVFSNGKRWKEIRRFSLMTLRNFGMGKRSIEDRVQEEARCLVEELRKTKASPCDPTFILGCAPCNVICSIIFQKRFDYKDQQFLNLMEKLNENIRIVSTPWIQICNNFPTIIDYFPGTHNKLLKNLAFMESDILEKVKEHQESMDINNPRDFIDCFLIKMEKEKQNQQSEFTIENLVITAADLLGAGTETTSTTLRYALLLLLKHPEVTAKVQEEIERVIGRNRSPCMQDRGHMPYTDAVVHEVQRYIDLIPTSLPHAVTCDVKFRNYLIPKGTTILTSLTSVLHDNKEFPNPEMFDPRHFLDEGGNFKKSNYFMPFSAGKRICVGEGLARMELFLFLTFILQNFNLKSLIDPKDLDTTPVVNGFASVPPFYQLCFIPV

COc1ccc(CNC(=O)c2sc3nnc(C)c(C)c3c2N)cc1F
Vdss [1]: 1.5 L/kg | half-life [2]: 28.8 min | EC50 (Cytochrome P450 1A2 [3]): > 50 µM | IC50 [4]: 1.2 µM | Emax at 1 h (CYP1A2): ≤ 1% | concentration at 1.5 h [5]: 560 nM | Activity (Cytochrome P450 2C19): 31.2% | IC50 (Cytochrome P450 1A2 [6]): > 30 µM | Tmax [7]: 45 min | solubility [8]: 2.4 µM (≈ 0.865 µg/mL) | Activity (Cytochrome P450 1A2 [9]): 21.4% | EC50 [10]: 0.087 µM | Vd [11]: 0.88 L/kg | Activity [12]: inactive | IC50 (Cytochrome P450 2D6): > 30 µM | Vdss [13]: 1.5 L/kg | EC50 (Cytochrome P450 3A4): > 50 µM | EC50 (Cytochrome P450 2B6): > 50 µM | Tmax [14]: 90 min
